Results on three compounds are retold here after patent US20230116703A1, “NOVEL ERGOLINES AND METHODS OF TREATING MOOD DISORDERS” (priority 2021, published 2023).

The structures appear in SMILES notation. Where only a bound is given, the exact number is not on record here.

One may read the Ki as a dissociation constant, usually derived from enzyme kinetics or from competition with a known ligand. In general, microsomal CLint refers to the capacity of the preparation to metabolise the compound, expressed as a volume cleared per time. Read a low microsomal CLint as slow turnover. A word on the EC50: it is the concentration that produces a half-maximal response. For orientation: Emax means the size of the effect at its maximum, as opposed to the concentration needed.

In data set [1] the target is T1, 5-HT2A receptor (Homo sapiens, UniProt P28223).
T1 construct: host or cells: HEK293
T1 sequence (P28223 whole entry): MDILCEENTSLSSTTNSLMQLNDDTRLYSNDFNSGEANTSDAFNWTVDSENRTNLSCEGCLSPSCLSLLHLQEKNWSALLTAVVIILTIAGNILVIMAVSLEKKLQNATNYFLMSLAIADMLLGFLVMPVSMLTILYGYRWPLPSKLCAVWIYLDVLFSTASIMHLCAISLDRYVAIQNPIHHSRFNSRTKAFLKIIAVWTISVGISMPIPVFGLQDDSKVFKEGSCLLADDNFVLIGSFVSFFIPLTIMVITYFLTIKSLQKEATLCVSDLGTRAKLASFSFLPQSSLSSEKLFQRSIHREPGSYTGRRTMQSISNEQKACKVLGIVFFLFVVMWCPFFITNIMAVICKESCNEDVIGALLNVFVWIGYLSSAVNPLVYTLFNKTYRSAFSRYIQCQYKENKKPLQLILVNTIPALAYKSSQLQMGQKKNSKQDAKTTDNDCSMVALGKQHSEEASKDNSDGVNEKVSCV
Briefly: biochemical. It is filed as binding. The settings on record: 1 nM [^3H]ketanserin, HEK293 stable cell line; read-out: 5-HT2A Receptor Ki (nM) ([^3H]ketanserin). Put shortly: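 Affinity was measured in radioligand binding experiments using [^3H]ketanserin as the labelled ligand, following methods adapted from published procedures.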

Data set [2] is described as follows: Metabolic stability in human liver microsomes (HLM). It is filed as in vitro ADME. The settings on record: for t1/2: 1 μM, 0.50 mg protein per mL; for microsomal CLint at 1 μM: both sexes, human, pooled human liver microsomes, pH 7.4, 0.50 mg protein per mL. The text has this: HLM Stability. Pooled HLM from adult male and female donors (Corning 452117) were used.
On the technique in general: Liver microsomes are a subcellular fraction often used to study metabolism.

The target in another data set is T2, Alpha1A receptor (Homo sapiens, UniProt P35348).
T2 sequence (P35348 1-466): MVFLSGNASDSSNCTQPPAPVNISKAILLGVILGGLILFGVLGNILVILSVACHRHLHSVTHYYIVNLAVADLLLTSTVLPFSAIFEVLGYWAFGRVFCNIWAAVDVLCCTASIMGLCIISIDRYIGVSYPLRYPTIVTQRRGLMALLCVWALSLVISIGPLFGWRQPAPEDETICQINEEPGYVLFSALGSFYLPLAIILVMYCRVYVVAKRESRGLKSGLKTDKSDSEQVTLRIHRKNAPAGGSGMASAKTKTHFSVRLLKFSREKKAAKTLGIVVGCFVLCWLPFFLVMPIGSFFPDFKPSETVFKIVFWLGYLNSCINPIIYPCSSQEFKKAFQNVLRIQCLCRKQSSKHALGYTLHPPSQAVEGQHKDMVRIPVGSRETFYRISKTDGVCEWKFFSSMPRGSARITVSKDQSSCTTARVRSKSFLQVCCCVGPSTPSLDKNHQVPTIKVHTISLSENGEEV
Briefly: FLIPR Ca^2+ flux agonist assay at Alpha1A. It is filed as cell-based. The protocol:
Disclosed compounds were tested for agonist activity at several adrenergic (Alpha1A and Alpha2A) and dopamine (D1 and D2) receptor subtypes using Ca^2+ flux functional assays, with the results summarized in Table 6. Selectivity for the 5-HT2A receptor over these other targets varied depending on the specific target and compound.
(§1) Functional Assays at Adrenergic and Dopamine Receptors. Agonist activity at Alpha1A, Alpha2A, D1, and D2 receptors was determined using a FLIPR Ca^2+ flux assay at WuXi AppTec (Hong Kong) Limited according to their standard protocols. Briefly, stably transfected cells expressing the receptor of interest were grown and plated in a 384 well plate and incubated at 37° C. and 5% CO2 overnight. A solution of 250 mM probenecid in 1 mL FLIPR assay buffer was prepared fresh. This was combined with a fluorescent dye (Fluo-4 Direct™) to make a final assay concentration of 2.5 mM. Compounds were diluted 1:3.16 for 10 points and 750 nL was added to a 384 well compound plate using ECHO along with 30 μL assay buffer. The fluorescent dye was then added to the assay plate along with assay buffer to a final volume of 40 μL. The cell plate was incubated for 50 min at 37° C. and 5% CO2 and placed into the FLIPR Tetra along with the compound plate. 10 μL of references and compounds were then transferred from the compound plate into the cell plate and the fluorescent signal was read.

Another data set concerns the target T3, 5-HT1A receptor (Homo sapiens, UniProt P08908).
T3 construct: host or cells: CHO cells
T3 sequence (P08908 1-422): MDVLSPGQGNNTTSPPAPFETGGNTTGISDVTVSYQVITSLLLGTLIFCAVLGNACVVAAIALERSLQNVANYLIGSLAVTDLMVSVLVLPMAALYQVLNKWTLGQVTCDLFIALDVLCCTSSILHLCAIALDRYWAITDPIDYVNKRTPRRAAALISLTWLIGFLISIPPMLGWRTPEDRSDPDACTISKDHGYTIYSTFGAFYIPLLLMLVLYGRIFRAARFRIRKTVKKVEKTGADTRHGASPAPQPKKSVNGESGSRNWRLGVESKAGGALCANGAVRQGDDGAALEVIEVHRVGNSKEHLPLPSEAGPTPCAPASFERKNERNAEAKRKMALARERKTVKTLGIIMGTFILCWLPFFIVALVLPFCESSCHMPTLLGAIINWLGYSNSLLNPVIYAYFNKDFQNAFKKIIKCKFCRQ
Briefly: cell-based. The settings on record: Ca^2+ flux, agonist; read-out: 5-HT1A EC50.

Another data set concerns the target T4, 5-HT2B receptor (Homo sapiens, UniProt P41595).
T4 construct: host or cells: HEK293
The experiment in a line: cell-based. The settings on record: Ca^2+ flux, agonist; read-out: 5-HT2B EC50.

A further data set concerns the target 5-HT1B receptor (Homo sapiens, UniProt P28222). The experiment in a line: cAMP accumulation agonist assay at 5-HT1B. Particulars: cAMP, agonist; read-out: 5-HT1B EC50. The data set is classed as cell-based. The essentials:
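Agonism was measured by cAMP accumulation in stably transfected cells incubated 60 min at RT. A detection reagent was then added for 60 min at RT before reading, with an 800 nM cAMP standard in blank wells.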
For orientation: Changes in cAMP serve as a functional read-out for many G protein-coupled receptors.

Data set [3] in a line: Metabolic stability in rat liver microsomes (RLM). The settings on record: for t1/2: RLM, 0.50 mg protein per mL; for microsomal CLint at 1 μM: both, rat, pooled rat liver microsomes, pH 7.4.
Data set [4] is described as follows: Metabolic stability in mouse liver microsomes (MLM). It is filed as in vitro ADME. The settings on record: 0.50 mg protein per mL; for t1/2: MLM (CD-1), 1 μM; for microsomal CLint at 1 μM: mouse, pooled mouse liver microsomes, pH 7.4, MLM (CD-1). The text has this: MLM Stability Pooled MLM from CD-1 mice (BIOIVT M00501) were used.
Data set [5] has as its target T1, 5-HT2A receptor. Briefly: cell-based. It is filed as cell-based. The settings on record: Ca^2+ flux, agonist; read-out: 5-HT2A EC50.
The target in another data set is D2 receptor (Homo sapiens, UniProt P14416). Briefly: FLIPR Ca^2+ flux agonist assay at D2. The data set is classed as cell-based. As for the experimental part:
as §1, with “Compounds were diluted 1:3.16 for 10 points and 750 nL was added to a 384 well compound plate using ECHO along with 30 μL assay buffer.” left out

A further data set addresses D1 receptor (Homo sapiens, UniProt P21728). Briefly: FLIPR Ca^2+ flux agonist assay at D1. It is filed as cell-based. As for the experimental part: as §1, with “Compounds were diluted 1:3.16 for 10 points and 750 nL was added to a 384 well compound plate using ECHO along with 30 μL assay buffer.” left out
Data set [6] concerns the target T1, 5-HT2A receptor. The experiment in a line: PathHunter beta-arrestin recruitment assay at 5-HT2A. It is filed as cell-based. Particulars: 5-HT2A beta-arrestin. The essentials: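 Cells co-express PK-tagged 5-HT2A and beta-arrestin fused to a beta-galactosidase deletion mutant, so arrestin recruitment restores enzyme activity, read by chemiluminescence; cells were held at 37° C before testing. Agonist % activity = RLU over vehicle, relative to the maximal control ligand.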
A general note: Activated receptors often draw arrestin, which recruitment assays turn into a signal.

5-HT1B receptor, sequence (P28222 whole entry): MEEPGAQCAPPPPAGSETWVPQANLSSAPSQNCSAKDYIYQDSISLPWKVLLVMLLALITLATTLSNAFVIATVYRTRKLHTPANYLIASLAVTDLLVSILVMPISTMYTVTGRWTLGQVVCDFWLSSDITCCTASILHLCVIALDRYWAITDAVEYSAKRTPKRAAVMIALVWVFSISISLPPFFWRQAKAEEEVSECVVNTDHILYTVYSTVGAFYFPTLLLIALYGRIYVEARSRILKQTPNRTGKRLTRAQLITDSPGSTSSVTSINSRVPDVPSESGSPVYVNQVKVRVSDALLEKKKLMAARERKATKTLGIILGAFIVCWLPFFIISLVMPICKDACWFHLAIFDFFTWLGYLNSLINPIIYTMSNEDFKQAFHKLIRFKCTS
T4 sequence (P41595 whole entry): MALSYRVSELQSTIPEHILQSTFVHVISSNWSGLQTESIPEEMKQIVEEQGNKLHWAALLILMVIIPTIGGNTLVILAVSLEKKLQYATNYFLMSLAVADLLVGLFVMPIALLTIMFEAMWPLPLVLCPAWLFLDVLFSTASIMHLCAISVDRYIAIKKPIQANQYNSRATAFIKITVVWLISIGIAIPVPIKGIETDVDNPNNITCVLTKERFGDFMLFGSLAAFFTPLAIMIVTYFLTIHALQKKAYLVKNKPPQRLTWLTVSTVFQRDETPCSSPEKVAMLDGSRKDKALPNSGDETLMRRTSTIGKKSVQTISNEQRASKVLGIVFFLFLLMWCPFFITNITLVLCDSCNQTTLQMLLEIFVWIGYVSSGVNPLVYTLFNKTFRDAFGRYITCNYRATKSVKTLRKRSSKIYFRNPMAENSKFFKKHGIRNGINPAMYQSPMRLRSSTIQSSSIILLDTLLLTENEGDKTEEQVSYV
D2 receptor, sequence (P14416 whole entry): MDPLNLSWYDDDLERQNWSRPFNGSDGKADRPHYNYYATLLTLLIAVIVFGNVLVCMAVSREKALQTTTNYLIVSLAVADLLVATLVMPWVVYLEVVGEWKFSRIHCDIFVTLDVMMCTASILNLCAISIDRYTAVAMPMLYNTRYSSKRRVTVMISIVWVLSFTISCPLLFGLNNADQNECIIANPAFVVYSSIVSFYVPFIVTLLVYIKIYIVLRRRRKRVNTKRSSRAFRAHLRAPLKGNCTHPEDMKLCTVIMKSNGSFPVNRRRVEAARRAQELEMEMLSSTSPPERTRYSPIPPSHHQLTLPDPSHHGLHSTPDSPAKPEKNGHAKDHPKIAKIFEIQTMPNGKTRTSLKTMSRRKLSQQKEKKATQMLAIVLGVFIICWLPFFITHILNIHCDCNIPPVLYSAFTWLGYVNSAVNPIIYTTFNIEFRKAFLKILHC
D1 receptor, sequence (P21728 whole entry, the tested form may be a part): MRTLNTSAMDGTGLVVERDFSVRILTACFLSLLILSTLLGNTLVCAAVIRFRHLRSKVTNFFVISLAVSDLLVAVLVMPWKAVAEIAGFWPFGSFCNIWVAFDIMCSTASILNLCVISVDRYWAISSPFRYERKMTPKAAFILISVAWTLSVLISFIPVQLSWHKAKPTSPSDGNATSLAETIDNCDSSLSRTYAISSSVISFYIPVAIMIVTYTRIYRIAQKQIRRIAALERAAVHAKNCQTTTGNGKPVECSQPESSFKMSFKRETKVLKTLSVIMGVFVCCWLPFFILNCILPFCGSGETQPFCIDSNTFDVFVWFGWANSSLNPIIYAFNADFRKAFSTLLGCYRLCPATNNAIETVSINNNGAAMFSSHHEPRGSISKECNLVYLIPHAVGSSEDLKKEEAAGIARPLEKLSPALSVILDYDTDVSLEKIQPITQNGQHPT

In the case of `CCN(CC)C(=O)[C@@H]1C=C2c3cccc4[nH]cc(c34)C[C@H]2N(CCC(F)(F)F)C1` [Compound 12, (6aR,9R)—N,N-diethyl-7-(3,3,3-trifluoropropyl)-4,6,6a,7,8,9-hexahydroindolo[4,3-fg]quinoline-9-carboxamide], the inhibition constant (Ki) on 5-HT2A receptor [1] turned out to be 5.61 nM. Also, the “t1/2” value in data set [2] is listed as 13.5 min; in [3] it was 5.9 min; in data set [4] it was 2.1 min. Also, the intrinsic metabolic clearance (microsomal CLint) at 1 μM in [2] worked out at 103 µL/min/mg; in [3], 236 µL/min/mg; in data set [4] it was 655 µL/min/mg. Also, the EC50 at Alpha1A receptor was more than 3160 nM; at 5-HT1A receptor, 2140 nM; on 5-HT2B receptor, 154 nM; at 5-HT1B receptor, 194 nM; at 5-HT2A receptor [5] it was 52.9 nM.

Take `CCN(CC)C(=O)[C@@H]1C=C2c3cccc4[nH]cc(c34)C[C@H]2N(CC2CC2)C1` [Compound 13, (6aR,9R)—N,N-diethyl-7-(cyclopropylmethyl)-4,6,6a,7,8,9-hexahydroindolo[4,3-fg]quinoline-9-carboxamide]: the inhibitory constant (Ki) on 5-HT2A receptor [1] turned out to be 2.23 nM. For the same compound, the “t1/2” value was found to be 21.1 min in data set [2], 27.7 min in data set [3] and 3.7 min in [4]. The results for the microsomal CLint at 1 μM in [2], in data set [3] and in data set [4] were 65.7 µL/min/mg, 50 µL/min/mg and 376 µL/min/mg, respectively. In addition, the concentration for a half-maximal effect (EC50) at Alpha1A receptor stood at 44.6 nM; on 5-HT1A receptor, 15.3 nM; at 5-HT2B receptor, 182 nM; on 5-HT1B receptor, 98.6 nM; on 5-HT2A receptor [5] it was 25.9 nM.

As for `CCN(CC)C(=O)[C@@H]1C=C2c3cccc4[nH]cc(c34)C[C@H]2N(C)C1` [LSD, lysergic acid diethylamide, reference compound], the “t1/2” value in data set [2] was 71.6 min; in data set [3], 60.2 min; in data set [4], 31.3 min. Also, the microsomal CLint at 1 μM in data set [2] was 19.4 µL/min/mg; in data set [3], 23 µL/min/mg; in data set [4], 44.2 µL/min/mg. In addition, the concentration giving a half-maximal response (EC50) at Alpha1A receptor is 91.1 nM; on D2 receptor it was 4.93 nM; on 5-HT1B receptor, 2.06 nM; on D1 receptor, 4.87 nM. On 5-HT2A receptor [6], this compound displayed a maximal effect (Emax) of less than 60%. Besides, the “agonist type in arrestin recruitment assay (in words)” value on 5-HT2A receptor [6] is listed as “partial agonists”.
